# PubChem BioAssay (NCI)
# “And” between values parts separate entries of the source, which are not always exact repeats. Equal values may be shown once.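 Values below derive from 48-hour exposures of cells grown in 96-well plates, with endpoints linearly interpolated between the two concentrations bracketing the appropriate inhibition level. GI50 is the concentration that inhibits growth by half. TGI marks complete inhibition of growth.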
# Key:
# Test in all cases: DTP human tumour cell line panel, 48 h
# [1] = test system: T-47D breast
# [2] = test system: MDA-MB-435
# [3] = test system: MALME-3M melanoma
# [4] = test system: BT-549 breast
# [5] = test system: M14 melanoma
# [6] = test system: SF-268 CNS
# [7] = test system: HCT-15 colon
# [8] = test system: HCT-116 colon
Compound,GI50 [1],TGI [1],GI50 [2],TGI [2],GI50 [3],TGI [3],GI50 [4],TGI [4],GI50 [5],TGI [5],GI50 [6],TGI [6],GI50 [7],TGI [7],GI50 [8],TGI [8]
CC(C)n1c(/C=C/[C@@H](O)C[C@@H](O)CC(=O)O)c(-c2ccc(F)cc2)c2ccccc21,14.2 µM and 13.8 µM,> 100 µM,10.5 µM and 14.4 µM,> 100 µM,26.7 µM and 27.4 µM,> 100 µM,5.8 µM and 4.63 µM,> 77.6 µM,19.4 µM and 11.9 µM,> 100 µM,0.666 µM and 0.818 µM,> 100 µM,3.04 µM and 1.66 µM,> 100 µM,1.12 µM and 1.56 µM,11.1 µM and > 100 µM
Clc1ccccc1NN(Cc1ccccn1)c1ccccc1Cl,–,> 100 µM,–,34.9 µM,–,37.4 µM,–,56 µM,–,38.3 µM,–,52.4 µM,–,> 100 µM,–,28.8 µM
C=C(C)C1CC2C(C)=C(OC(C)=O)C1n1c(=O)c3cc4ccccc4cc3c(=O)n12 (stereo not drawn),–,–,–,–,–,> 100 µM,–,–,–,> 100 µM,–,> 100 µM,–,> 100 µM,–,> 100 µM
Clc1ccc(COC(Cn2ccnc2)c2ccc(Cl)cc2Cl)cc1 (stereo not drawn),2.26 µM,8.76 µM and 23.4 µM and 19.9 µM,2.91 µM,11.7 µM and 24.4 µM and 24 µM,2.22 µM,6.36 µM and 28.2 µM and 31.1 µM,2.48 µM,6.63 µM and 35.3 µM and 30.4 µM,2.92 µM,10.2 µM and 29.8 µM and 26.2 µM,3.42 µM,18.3 µM and 36.1 µM and 36.7 µM,3.24 µM,12.7 µM and 27.5 µM,1.42 µM,3.1 µM and 21.1 µM and 20.2 µM
CN1CCCN(CCNc2nccc(-c3c(-c4cccc(O)c4)nc4sccn34)n2)S1(=O)=O,14.2 µM and 11.8 µM,57.1 µM and > 88.7 µM,0.285 µM and 0.438 µM,20.6 µM and > 71.8 µM,0.0583 µM,3.91 µM,9.2 µM and 12.3 µM,58.8 µM and > 78.4 µM,0.17 µM and 0.128 µM,9.04 µM and 13.2 µM,17.7 µM,> 100 µM,7.12 µM and 5.51 µM,75 µM and 98.4 µM,2.96 µM and 4.39 µM,14.9 µM and 18.8 µM
O=C(C(=O)c1ccc(Cc2ccc(C(=O)C(=O)c3ccccc3)cc2)cc1)c1ccccc1,–,–,–,–,–,> 100 µM,–,–,–,> 100 µM,–,> 100 µM,–,> 100 µM,–,> 100 µM
COc1ccc(OC)c(-c2cc(-c3ccccc3)nn2-c2ccc(S(=O)(=O)NC(C)=O)cc2)c1,–,–,5.77 µM,22.9 µM,–,–,16.2 µM,38.6 µM,2.74 µM,8.74 µM,10.1 µM,32.2 µM,3.72 µM,10.2 µM,–,–
O=C(CC(C(=O)c1cccs1)c1ccc2c(c1)OCO2)c1ccc(Br)cc1 (stereo not drawn),–,> 100 µM,–,> 100 µM,–,> 100 µM,–,–,–,> 100 µM,–,> 100 µM,–,> 100 µM,–,–
Clc1ccc([O][In]([O]c2ccc(Cl)cn2)[O]c2ccc(Cl)cn2)nc1,–,–,–,–,> 100 µM,> 100 µM,–,–,> 100 µM,> 100 µM,> 100 µM,> 100 µM,> 100 µM,> 100 µM,> 100 µM,> 100 µM
Cc1ccc(C(=O)/C(=C/c2ccc([N+](=O)[O-])cc2)S(=O)Cc2ccccc2)cc1 (stereo not drawn),–,–,1.47 µM,3.04 µM,1.69 µM,3.54 µM,1.79 µM,3.49 µM,1.48 µM,2.94 µM,1.71 µM,3.72 µM,1.07 µM,2.59 µM,1.57 µM,2.99 µM
CCN(CC)c1ccc(NC(=S)NN(C)C)cc1,–,> 10 µM,–,> 10 µM,–,> 10 µM,–,–,–,> 10 µM,–,> 10 µM,–,> 10 µM,–,> 10 µM
